Source: patent publication US3947569A, “Process for preparing the releasing hormone of luteinizing hormone (LH) and of follicle stimulating hormone (FSH), salts and compositions thereof, and intermediates therefor” (American Home Products Corporation, priority 1974, dated 1976)

Experiments:
[1] = tested on: LH and FSH release; experiment: bioassays / biological equivalence to the natural hormone (not specified further)
[2] = tested on: LH and FSH release; experiment: LH- and FSH-releasing activity tested in the radioimmunoassay of Niswender et al.; type: in vivo; conditions: acid addition salt
Text: (§1) Exp. Biol. Med., 128, 807 (1968).

[3] = tested on: ovulation; experiment: induction of ovulation in the hamster (Arimura et al., Science 174, 511); type: in vivo
Text: as §1

[4] = tested on: ovulation; experiment: modification of the ovulation induction assay in the rat (Arimura et al., Endocrinology 80, 515); type: in vivo
Text: as §1

Compound	pharmacological / biological equivalence ([1]; compared with the decapeptide or the natural hormone)	LH- and FSH-releasing activity compared with the natural hormone [2]	activity in induction of ovulation compared with the natural hormone ([3]; hamster)	time to ovulation following administration ([3]; rodents such as rats or hamsters: hamster) [h]	activity in induction of ovulation compared with the natural hormone ([4]; rat)	time to ovulation following administration ([4]; rodents such as rats or hamsters: rat) [h]	potency in bioassays compared with the natural product ([1]; hydrochloride salt)
5-Oxo-L-Prolyl-L-Histidyl-L-Tryptophyl-L-Seryl-L-Tyrosylglycyl-L-Leucyl-L-Arginyl-L-Prolylglycinamide (I) Zinc Complex [Example 19]	pharmacologically equivalent to the decapeptide	–	–	–	–	–	–
CC(C)C[C@H](NC(=O)CNC(=O)[C@H](Cc1ccc(O)cc1)NC(=O)[C@H](CO)NC(=O)[C@H](Cc1c[nH]c2ccccc12)NC(=O)[C@H](Cc1c[nH]cn1)NC(=O)[C@@H]1CCC(=O)N1)C(=O)N[C@@H](CCCNC(=N)N)C(=O)N1CCC[C@H]1C(=O)NCC(N)=O [I, 5-oxo-L-prolyl-L-histidyl-L-tryptophyl-L-seryl-L-tyrosylglycyl-L-leucyl-L-arginyl-L-prolylglycinamide]	–	as active as the natural hormone	equally active	≤ 18	equally active	≤ 18	as potent as the latter
